The values that follow come from ChEMBL document CHEMBL1124008, “Synthesis and antifolate activity of 5-methyl-5,10-dideaza analogues of aminopterin and folic acid and an alternative synthesis of 5,10-dideazatetrahydrofolic acid, a potent inhibitor of glycinamide ribonucleotide formyltransferase” (J Med Chem, 1988).

Assay [1] has as its target T1, Dihydrofolate reductase (Mus musculus, UniProt P00375).
T1 sequence (P00375 whole entry): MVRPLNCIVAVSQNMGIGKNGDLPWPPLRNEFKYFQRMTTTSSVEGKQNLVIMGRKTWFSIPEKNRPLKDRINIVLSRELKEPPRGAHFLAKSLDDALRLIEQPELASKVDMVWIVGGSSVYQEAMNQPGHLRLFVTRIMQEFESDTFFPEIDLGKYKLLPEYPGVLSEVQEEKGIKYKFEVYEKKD
Put plainly: Evaluated for inhibition of dihydrofolate reductase (DHFR) isolated from L1210 cells. The assay is classed as cell-based.

Assay [2] has as its target Dihydrofolate reductase (Lactobacillus casei, UniProt P00381). Put plainly: Evaluated for inhibition of dihydrofolate reductase (DHFR) from Lactobacillus casei. On the set-up: species or system Lacticaseibacillus casei.
The target in assay [3] is T2, Trifunctional purine biosynthetic protein adenosine-3 (Mus musculus, UniProt Q64737).
T2 sequence (Q64737 whole entry): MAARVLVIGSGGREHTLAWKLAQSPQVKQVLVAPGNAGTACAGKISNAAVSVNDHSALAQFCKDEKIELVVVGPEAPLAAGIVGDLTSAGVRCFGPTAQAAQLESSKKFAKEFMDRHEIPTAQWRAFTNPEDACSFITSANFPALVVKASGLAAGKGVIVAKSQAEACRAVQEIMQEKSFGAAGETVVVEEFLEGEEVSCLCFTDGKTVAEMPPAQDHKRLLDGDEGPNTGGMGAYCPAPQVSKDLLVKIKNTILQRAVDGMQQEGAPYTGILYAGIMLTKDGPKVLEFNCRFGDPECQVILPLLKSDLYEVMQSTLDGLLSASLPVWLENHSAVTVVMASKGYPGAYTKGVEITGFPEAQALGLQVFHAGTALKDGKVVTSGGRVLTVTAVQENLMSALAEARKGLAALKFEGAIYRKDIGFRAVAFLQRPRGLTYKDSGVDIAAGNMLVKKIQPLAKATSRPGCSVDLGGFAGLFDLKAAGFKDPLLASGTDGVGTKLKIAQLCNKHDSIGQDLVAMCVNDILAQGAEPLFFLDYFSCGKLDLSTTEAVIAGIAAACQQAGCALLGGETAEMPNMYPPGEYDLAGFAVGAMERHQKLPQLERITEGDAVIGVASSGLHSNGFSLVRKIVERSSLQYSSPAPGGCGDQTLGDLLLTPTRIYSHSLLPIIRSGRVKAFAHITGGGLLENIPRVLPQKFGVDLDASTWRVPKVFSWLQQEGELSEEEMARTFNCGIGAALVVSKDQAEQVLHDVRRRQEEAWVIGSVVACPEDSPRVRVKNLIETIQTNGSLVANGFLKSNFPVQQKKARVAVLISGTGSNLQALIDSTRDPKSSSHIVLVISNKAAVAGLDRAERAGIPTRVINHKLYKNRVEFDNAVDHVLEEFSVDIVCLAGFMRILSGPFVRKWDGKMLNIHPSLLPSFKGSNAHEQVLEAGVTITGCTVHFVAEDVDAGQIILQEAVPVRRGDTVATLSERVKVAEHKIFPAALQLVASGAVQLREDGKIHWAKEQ
Put plainly: Inhibition of GAR transformylase from mammalian L1210 cells. The assay is classed as cell-based.

The target of a further assay is T3, Thymidylate synthase (Lactobacillus casei, UniProt P00469).
T3 sequence (P00469 whole entry): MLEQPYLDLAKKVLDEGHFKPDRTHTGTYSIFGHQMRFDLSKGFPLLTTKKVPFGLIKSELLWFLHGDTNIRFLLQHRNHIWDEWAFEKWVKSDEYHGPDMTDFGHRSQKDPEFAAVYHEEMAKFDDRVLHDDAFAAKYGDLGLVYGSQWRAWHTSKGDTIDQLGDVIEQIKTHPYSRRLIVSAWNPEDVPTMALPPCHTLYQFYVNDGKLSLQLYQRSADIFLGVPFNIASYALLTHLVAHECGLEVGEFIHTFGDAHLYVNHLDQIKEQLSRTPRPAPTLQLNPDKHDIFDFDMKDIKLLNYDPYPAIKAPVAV
Put plainly: Evaluated for inhibition of thymidylate synthase (TS) from Lactobacillus casei. The arrangement: species or system Lacticaseibacillus casei.

The target of assay [4] is Trifunctional purine biosynthetic protein adenosine-3 (Homo sapiens) (UniProt P22102). Put plainly: Inhibition of GAR transformylase from mammalian Manca.
The test system of assay [5] is L1210. Put plainly: Evaluated for cell growth inhibition of L1210 cells in cultures. It is filed as functional, cell-based. Conditions: Mus musculus.
In assay [6] the test system is L1210. As to the kind of experiment: Influx characteristics toward L1210 cells was evaluated. Conditions: Mus musculus. It is filed as functional, cell-based.
The subject of assay [7] is L1210. Put plainly: Efflux characteristics in the L1210 cells was evaluated. The assay is classed as functional, Mus musculus.

Dihydrofolate reductase (Lactobacillus casei, UniProt P00381), sequence (P00381 whole entry): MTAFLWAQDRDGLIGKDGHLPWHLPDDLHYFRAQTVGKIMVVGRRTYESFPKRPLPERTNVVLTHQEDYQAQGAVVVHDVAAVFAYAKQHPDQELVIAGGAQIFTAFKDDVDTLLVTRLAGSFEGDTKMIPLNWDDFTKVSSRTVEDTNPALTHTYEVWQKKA
Trifunctional purine biosynthetic protein adenosine-3 (Homo sapiens), sequence (P22102 whole entry, looked up): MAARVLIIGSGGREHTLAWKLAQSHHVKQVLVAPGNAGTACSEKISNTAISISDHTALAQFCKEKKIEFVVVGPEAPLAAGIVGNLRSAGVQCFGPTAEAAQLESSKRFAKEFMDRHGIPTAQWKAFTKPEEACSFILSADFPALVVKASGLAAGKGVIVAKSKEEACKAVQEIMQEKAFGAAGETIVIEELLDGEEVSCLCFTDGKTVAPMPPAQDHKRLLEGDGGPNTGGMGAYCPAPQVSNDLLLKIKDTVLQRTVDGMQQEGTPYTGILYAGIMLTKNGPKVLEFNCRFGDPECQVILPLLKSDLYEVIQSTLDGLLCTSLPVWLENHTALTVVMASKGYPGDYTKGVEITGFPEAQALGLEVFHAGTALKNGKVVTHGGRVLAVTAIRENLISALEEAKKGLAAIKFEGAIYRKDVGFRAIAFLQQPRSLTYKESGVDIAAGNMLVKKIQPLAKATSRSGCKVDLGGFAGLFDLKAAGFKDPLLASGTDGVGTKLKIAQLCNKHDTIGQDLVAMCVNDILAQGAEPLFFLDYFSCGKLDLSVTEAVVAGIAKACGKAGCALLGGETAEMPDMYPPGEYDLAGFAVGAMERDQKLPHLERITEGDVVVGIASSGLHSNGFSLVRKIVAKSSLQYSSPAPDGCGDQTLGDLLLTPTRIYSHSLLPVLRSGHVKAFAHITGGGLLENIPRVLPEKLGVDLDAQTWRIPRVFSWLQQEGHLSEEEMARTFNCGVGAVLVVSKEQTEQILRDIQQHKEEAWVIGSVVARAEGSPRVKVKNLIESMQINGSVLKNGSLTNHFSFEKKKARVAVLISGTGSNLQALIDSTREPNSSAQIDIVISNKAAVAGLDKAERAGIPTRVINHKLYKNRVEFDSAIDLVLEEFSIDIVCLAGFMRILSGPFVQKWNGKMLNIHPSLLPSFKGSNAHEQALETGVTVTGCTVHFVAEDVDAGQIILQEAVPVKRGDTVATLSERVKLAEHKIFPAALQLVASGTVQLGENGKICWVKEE

As a reminder, the Ki is the equilibrium dissociation constant of an inhibitor or competing ligand from its target. The term IC50 denotes the concentration that inhibits the measured activity by half. Low readings indicate inhibition by little substance, high ones a need for much substance. On to `Cc1c(CCc2ccc(C(=O)NC(CCC(=O)O)C(=O)O)cc2)cnc2nc(N)[nH]c(=O)c12` (stereo not given), for which the Ki at Dihydrofolate reductase [1] was over 1 nM. The concentration for half-maximal inhibition (IC50) on Dihydrofolate reductase [2] was 16000 nM; in assay [3], over 20000 nM; against Thymidylate synthase, 44000 nM; in assay [4] it was over 20000 nM.
By Km is commonly meant the substrate concentration at which the rate is half of its maximum. In the assay with L1210 [5], `Cc1c(CCc2ccc(C(=O)NC(CCC(=O)O)C(=O)O)cc2)cnc2nc(N)nc(O)c12` (stereo not given) registered an IC50 of 36400 nM. The Michaelis constant (Km) in the assay on L1210 [6] stood at 18.8 µM.
Consider `Cc1c(CCc2ccc(C(=O)NC(CCC(=O)O)C(=O)O)cc2)cnc2nc(N)nc(N)c12` (stereo not given), for which affinity on Dihydrofolate reductase [1] was put at a Ki of 0.0283 nM. For the same molecule, the IC50 at Dihydrofolate reductase [2] was found to be 23 nM; in the assay on L1210 [5], 23.2 nM; at Thymidylate synthase, 2900 nM. In the assay with L1210 [7], this molecule registered a k of 0.5 min⁻¹. The Km in the assay on L1210 [6] amounted to 1.25 µM.
Molecule `CCC1c2c(O)nc(N)nc2NCC1CCc1ccc(C(=O)NC(CCC(=O)O)C(=O)O)cc1` (racemic) had a Ki on Dihydrofolate reductase [1] of over 1 nM. Moreover, the half-maximal inhibitory concentration (IC50) on Dihydrofolate reductase [2] is 19000 nM; in assay [3] it was 500 nM; in the assay on L1210 [5] it was 57.2 nM; against Thymidylate synthase, over 100000 nM; in assay [4] it was 500 nM. Also, in the assay on L1210 [6], the Km worked out at 2.48 µM.
Molecule `CC1c2c(O)nc(N)nc2NCC1CCc1ccc(C(=O)NC(CCC(=O)O)C(=O)O)cc1` (racemic) had an inhibition constant Ki at Dihydrofolate reductase [1] of over 1 nM. Moreover, the half-maximal inhibitory concentration (IC50) on Dihydrofolate reductase [2] was over 100000 nM; in assay [3] it was 80000 nM; in the assay on L1210 [5] it was 490 nM; at Thymidylate synthase it was over 100000 nM; in assay [4], 14000 nM. In the assay with L1210 [6], the Km was 1.62 µM.
Regarding `CN(Cc1cnc2nc(N)nc(N)c2n1)c1ccc(C(=O)N[C@@H](CCC(=O)O)C(=O)O)cc1` [METHOTREXATE], the k in the assay with L1210 [7] was 0.22 min⁻¹. Further, the midpoint of inhibition with L1210 [5], the IC50, lay at 2.1 nM. The Km in the assay on L1210 [6] amounted to 3.95 µM.
